Assays:
Type in all cases: in vivo
Settings in all cases: intraperitoneal, at time of maximum effect, 50% of muscle relaxation activity vs vehicle only (100%)
male mice (ICR) [1] = experiment: Muscle relaxation activity by wire hang
Experimental: (§1) For testing, male mice (ICR) were purchased from ORIENT BIO INC. (Korea), divided into several groups with 6 mice in each group, and were adapted for 4-5 days. The mice having the weight ranging from 19 g to 26 g were employed for the test. The pharmacological effect of the test compounds on muscle relaxation was evaluated by Rotarod test, grip strength test, and muscular force (wire hang) test. All mice were adapted to the test environment at one hour before starting the tests. The pharmacological effects of all the test compounds were evaluated by administration through peritoneal cavity of the mice (10 ul/g, bw).
This experimentation was conducted using a metal wire of 30 cm in length, which was suspended between two pillars at a height of about 40 cm from the bottom covered with a soft pad. […] Each mouse was made to grip the wire using two forelimbs, and the elapse time before the mouse fell off from the wire to the pad on the bottom was recorded in seconds. Each mouse was given 5 opportunities for this test at an interval of 2 minutes period. The highest 3 records among the test opportunities were selected and the mean value was used as the test result. This experimentation was conducted according to the method described in the reference, ‘Jacqueline N. Crawley (1999) Behavioral phenotyping of transgenic and knockout mice: experimental design and evaluation of general health, sensory functions, motor abilities, and specific behavioral tests. Brain Res. 835: 18-26’.
(§2) The results of muscle relaxation activity of the phenyl alkyl carbamate derivative compounds measured in above Experimental Examples 1 to 3 are shown in following Table 3.

male mice (ICR) [2] = experiment: Muscle relaxation activity by grip strength (forelimbs)
Experimental: as §1
A grip strength test using the test animals' forelimbs was performed using an instrument equipped with triangle ring and designed so as to easily grip with the forelimbs of experimental animals, manufactured from Ugo Basile Inc. (Ugo Basile, Model 47106, Italy). The test was conducted before and after administration of the compounds to evaluate the effects thereof. […] The mouse was made to grip the rod with its forelimbs, and its tail was pulled, where the force at which the mouse detached from the rod was recorded. The instrument indicated the force in grams. All of the mice were given 3 opportunities for test, and the 3 highest values among the test opportunities were selected and the mean value was used as the test result. This experimentation was conducted according to the method described in the reference, ‘Nevins et al. (1993) Quantitative grip strength assessment as a means of evaluating muscle relaxation in mice. Psychopharmacol. 110: 92-96’.
as §2

male mice (ICR) [3] = experiment: Muscle relaxation activity by residence time on a rotarod rotating at a fixed speed (15 r.p.m.)
Experimental: as §1
All the mice to be tested were preliminarily trained for 5 minutes on a rod rotating at the rate of 15 revolutions per a minute. The mice that could not remain on the rod without falling off therefrom for a minimum of 2 minutes were excluded from this testing. After the training, all the mice were allowed to rest for 45-60 minutes. Before the administration of the test compounds, the mice were subjected to a further training for one minute on the rod rotating under the same condition, where the mice falling off from the rod were excluded from this experimentation. […] In case a mouse stays on the rod until the test is finished, the time was recorded as 10 minutes. As test time for evaluation, a maximum of 10 minutes was applied. This experimentation was conducted according to the method described in the reference, ‘Yasuda et al. (2005) Antipyretic, analgesic and muscle relaxant activities of Pueraria isoflavonoids and their metabolites from Pueraria lobata Ohwi—a traditional Chinese drug. Biol. Pharm. Bull. 28: 1224-1228’.
as §2

In the case of `COCO[C@@H](c1ccccc1Cl)[C@H](C)OC(N)=O` [Example 1, 1-(2-chlorophenyl)-(S)-1-methoxymethoxypropyl-(S)-2-carbamate], the “MR test (ED50) III = Wire hang” value (male mice (ICR) [1]) is reported as 37.0 mg/kg, bw, the “MR test (ED50) II = Grip strength” value (male mice (ICR) [2]) is reported as 115.2 mg/kg, bw and the “MR test (ED50) I = Fixed 15 r.p.m. Rotarod” value (male mice (ICR) [3]) is reported as 55.0 mg/kg, bw.
For `COCO[C@H](c1ccccc1I)[C@@H](C)OC(N)=O` [Example 91, 1-(2-iodophenyl)-(R)-1-methoxymethoxypropyl-(R)-2-carbamate], the “MR test (ED50) III = Wire hang” value (male mice (ICR) [1]) was 24.4 mg/kg, bw and the “MR test (ED50) I = Fixed 15 r.p.m. Rotarod” value (male mice (ICR) [3]) was 30.1 mg/kg, bw.
For `CO[C@@H](c1ccccc1Cl)[C@H](C)OC(N)=O` [Example 124, 1-(2-chlorophenyl)-(S)-1-methoxypropyl-(S)-2-carbamate], the “MR test (ED50) III = Wire hang” value (male mice (ICR) [1]) was 34.8 mg/kg, bw, the “MR test (ED50) II = Grip strength” value (male mice (ICR) [2]) was 66.4 mg/kg, bw and the “MR test (ED50) I = Fixed 15 r.p.m. Rotarod” value (male mice (ICR) [3]) was 35.9 mg/kg, bw.
`CO[C@@H](c1ccccc1F)[C@H](C)OC(N)=O` [Example 135, 1-(2-fluorophenyl)-(S)-1-methoxypropyl-(S)-2-carbamate] was tested, and the “MR test (ED50) III = Wire hang” value (male mice (ICR) [1]) was 26.2 mg/kg, bw, the “MR test (ED50) II = Grip strength” value (male mice (ICR) [2]) was 145.6 mg/kg, bw and the “MR test (ED50) I = Fixed 15 r.p.m. Rotarod” value (male mice (ICR) [3]) was 60.0 mg/kg, bw.
In the case of `CO[C@@H](c1ccccc1I)[C@H](C)OC(N)=O` [Example 143, 1-(2-iodophenyl)-(S)-1-methoxypropyl-(S)-2-carbamate], the “MR test (ED50) III = Wire hang” value (male mice (ICR) [1]) is reported as 33.5 mg/kg, bw, the “MR test (ED50) II = Grip strength” value (male mice (ICR) [2]) is reported as 61.0 mg/kg, bw and the “MR test (ED50) I = Fixed 15 r.p.m. Rotarod” value (male mice (ICR) [3]) is reported as 13.0 mg/kg, bw.
With `C[C@H](OC(N)=O)[C@@H](OC(N)=O)c1ccccc1Cl` [Example 247, 1-(2-chlorophenyl)-(S)-1-carbamoyloxypropyl-(S)-2-carbamate] the “MR test (ED50) II = Grip strength” value (male mice (ICR) [2]) was 264.3 mg/kg, bw.
For `C[C@@H](OC(N)=O)[C@H](OC(N)=O)c1ccccc1Cl` [Example 250, 1-(2-chlorophenyl)-(R)-2-carbamoyloxypropyl-(R)-1-carbamate], the “MR test (ED50) II = Grip strength” value (male mice (ICR) [2]) was 225.6 mg/kg, bw.
